Source: US10918628B2, “Treatment of synucleinopathies” (Deutsches Zentrum für Neurodegenerative Erkrankungen e. V. …, priority 2016, dated 2021)
“And” between values parts separate entries of the source, which are not always exact repeats. Identical values can stand only once. Like-named read-outs stand apart in the source and are kept apart here.

What was measured:
[1] = system: α-syn overexpressing LUHMES cells; assay: LDH release into the culture medium as measure of α-syn-induced cell death; type: cell-based, human; settings: for effect of specific PDE inhibitors on α-syn mediated toxicity (LDH release): FIG. 2B-I
α-syn = assay: Western blot quantification of α-syn bands; type: cell-based, human
[2] = system: α-syn transduced LUHMES neurons; assay: High-throughput screening of FDA-approved drugs for neuroprotective efficacy against α-syn (propidium iodide / Hoechst 33342 survival); type: cell-based, human; settings: 3 μM and 10 μM, each in triplicates (six runs); six days after transduction
[3] = system: TH+ neurons in the substantia nigra; assay: Stereological counting of TH+ cells in the substantia nigra after intranigral rAAV injection; type: in vivo, mice
Procedure: FIG. 5 Vinpocetine protects against α-syn-induced toxicity in vivo. (A) Experimental time flow. Grey bar: time point of stereotactical injection. (B) Experimental groups. Mice were injected stereotactically with either NaCl (control injection) or rAAV to overexpress luciferase (rAAV-Luc, control protein), or alpha-synuclein (rAAV-α-syn). Animals of each injection group were then randomized with a 1:1 allocation to be treated with once daily intraperitoneal injections of either solvent or vinpocetine for a 9-week period. (C) Representative images of the substantia nigra, immunostained for tyrosine hydroxylase (TH, grey) to identify dopaminergic neurons in solvent treated mice. Circle: area of cell loss upon α-syn overexpression. (D) Quantification of TH^+ cells on the control (Ctrl) side and the stereotactic injection side of solvent treated mice. On the injection side there was a significant loss of TH^+ cells (dark grey bar, right panel) after α-syn overexpression. (E) Images of the TH-immunostained substantia nigra of vinpocetine treated mice of the three injection groups. […] (F) Quantification of the number of TH^+ cells on the control (Ctrl) side and the stereotactic injection side of vinpocetine treated mice. […] Data are mean±s.e.m. Scale bars: 1 mm.
To investigate the neurotoxicity of α-syn in vivo, recombinant adeno-associated viral (rAAV) vectors were stereotactically injected into the substantia nigra of 11 weeks old mice to overexpress human wild type α-syn (rAAV-α-syn; FIG. 5A). The injection of rAAV vectors expressing luciferase (rAAV-luc) or injections with NaCl were used as controls for the toxicity of viral-mediated protein overexpression or the injection procedure itself. The treatment started one week after the intranigral injections. Therefore, the mice of each injection group (NaCl, rAAV-luc, and rAAV-α-syn) were randomized to be treated by daily intraperitoneal injections with 25 mg vinpocetine in solvent or the corresponding volume of solvent alone (FIG. 5B). All animals survived the injection procedure and treatment period. A subgroup of animals were not treated and sacrificed three weeks after injection to determine the transduction rate for rAAV-α-syn and rAAV-luc (each n=3).
To quantify the extent of neurodegeneration induced by rAAV mediated overexpression of α-syn, tyrosine-hydroxylase (TH) stainings of the substantia nigra and the striatum were performed. The number of TH^+ cells was determined by stereological counting. In the group of NaCl injected mice with solvent treatment, there was no significant difference in the number of TH^+ neurons between the injected (4108±54 cells) and the non-injected side (4168±92 cells, P=0.99, FIG. 5C, upper panel and FIG. 5D, blank columns).
To determine the efficacy of vinpocetine in vivo, the number of TH^+ cells in the substantia nigra was determined in mice treated with daily injections of 25 mg/kg vinpocetine in solvent or the corresponding amount of solvent alone.

[4] = system: α-syn overexpressing LUHMES cells; assay: Number of vital DAPI-stained nuclei (cell counts); type: cell-based, human; settings: 20 μM vinpocetine; α-syn with DMSO 57.0±3.4%
Text: (§1) FIG. 3 The PDE1 inhibitor vinpocetine reduces cell death and 37 kDa α-syn specimen. (A) Cell counts of untransduced control cells (Ctrl, white bar), solvent treated α-syn transduced cells (black bar) and α-syn transduced cells with treated with different concentrations of vinpocetine (dark grey bars) confirmed the protective effect of vinpocetine. […] (C) Quantification of the CellEvent™ signal in untransduced control cells (Ctrl, left bar), α-syn transduced cells treated with solvent (black bar) and vinpocetine treated α-syn transduced cells (dark grey bar). (D) Representative Western blot of control cells (Ctrl), α-syn transduced cells without or with treatment vinpocetine in different concentrations. (E-H) Quantification of specific α-syn positive Western blot bands. […] The density of the 37 kDa band positively correlated with the LDH release (r^2=0.99, P<0.001, I) and negatively correlated with the number of vital cells (r^2=0.96, P<0.01, J). *P<0.05, **P<0.01, ***<0.001, n.s. not significant, one-way ANOVA with Tukey's HSD post-hoc test. Data are mean±s.e.m.
(§2) To validate the data from the LDH measurement, we determined the number of vital 4′,6-diamidino-2-phenylindole (DAPI)-stained nuclei in untransduced control cells and α-syn overexpressing cells treated without or with ascending concentrations of vinpocetine. […]

caspase 3 and 7 = assay: CellEvent fluorescence signal for activated caspase 3 and 7; type: cell-based, human; settings: 20 μM vinpocetine; untransduced 1.0±0.2, α-syn with DMSO 74.8±5.7
Text: as §1, §2

microglial marker ibal = settings: mouse, in vivo
[5] = vinpocetine treated mice, daily intraperitoneal 25 mg/kg

Molecule: Nc1nc(-c2nn(Cc3ccccc3F)c3ncccc23)ncc1C1CC1 [BAY41-2272]
- relative LDH release compared to α-syn overexpressing control cells ([1]; 1 μM BAY41-2272): 56.2±7.8%
- change of 37 kDa α-Syn band (Western blot, C20 antibody) (α-syn; α-Syn-transduced neurons with forskolin or BAY41-2272, FIG. 4d,e): reduction of a 37 kDa α-Syn band

Molecule: Cc1ccc([N+](=O)[O-])cc1S(=O)(=O)N(C)C [BRL 50481]
- effect of specific PDE inhibitors on α-syn mediated toxicity (LDH release) ([1]; different concentrations): did not have an effect

Molecule: COc1ccc(Cc2nn3c([C@@H](CCCc4ccccc4)[C@@H](C)O)nc(C)c3c(=O)[nH]2)cc1OC [Bay60-7550]
- effect of specific PDE inhibitors on α-syn mediated toxicity (LDH release) ([1]; different concentrations): did not have an effect

Molecule: C[C@H](Cc1nc2c(cnn2-c2ccccc2Cl)c(=O)[nH]1)C(F)(F)F [Bay 73-6691]
- effect of specific PDE inhibitors on α-syn mediated toxicity (LDH release) ([1]; different concentrations): did not have an effect

Molecule: Cc1[nH]c(=O)c(C#N)cc1-c1ccncc1 [Milrinone]
- effect of specific PDE inhibitors on α-syn mediated toxicity (LDH release) ([1]; different concentrations): did not have an effect

Molecule: COc1ccc(C2CNC(=O)C2)cc1OC1CCCC1 (stereo not drawn) [Rolipram]
- effect of specific PDE inhibitors on α-syn mediated toxicity (LDH release) ([1]; different concentrations): did not have an effect

Molecule: CCCc1nn(C)c2c(=O)[nH]c(-c3cc(S(=O)(=O)N4CCN(C)CC4)ccc3OCC)nc12 [Sildenafil]
- effect of specific PDE inhibitors on α-syn mediated toxicity (LDH release) ([1]; different concentrations): did not have an effect

Molecule: OCCN(CCO)c1nc(N2CCCCC2)c2nc(N(CCO)CCO)nc(N3CCCCC3)c2n1 [dipyridamole]
- LDH level compared to α-syn overexpressing LUHMES cells with DMSO treatment ([1]; Five μM dipyridamole): 77.0±5.1%
- protective hit (Z-score above 2.5) in cell survival screening [2]: protective in all six runs

Molecule: COC(=O)C1=C(C)NC(C)=C(C(=O)OC(C)C)C1c1cccc2nonc12 (stereo not drawn) [isradipine]
- effect of cation channel blockers on α-syn mediated toxicity (LDH release) ([1]; different concentrations, FIG. 4A,B): did not affect

Molecule: NC1=N[C@H](O)[C@H]2[C@H]3O[C@]4(O)O[C@@H]([C@@H](O)[C@@]2(N1)[C@@H]4O)[C@]3(O)CO [tetrodotoxin]
- effect of cation channel blockers on α-syn mediated toxicity (LDH release) [1]: did not affect

Molecule: vinpocetine
- effect of specific PDE inhibitors on α-syn mediated toxicity (LDH release) ([1]; different concentrations): significant protection in a dose dependent manner
- difference in number of TH+ neurons between solvent and vinpocetine treatment ([3]; NaCl and rAAV-luc injection groups): no difference
- number of TH+ cells in the substantia nigra on the rAAV-α-syn injection side ([3]; mice, daily intraperitoneal 25 mg/kg vinpocetine, 9-week period, solvent treated 2915±79): 3870±141 cells and 3870±14 cells
- protection against α-syn-induced cell death of TH+ neurons in vivo ([3]; rAAV-α-syn injected mice, vinpocetine once daily intraperitoneal, 9 weeks, FIG. 5F): completely prevented α-syn-induced cell death
- number of TH+ cells on the injection side, NaCl injected mice [3, 5]: 3984±160 cells
- number of TH+ cells on the injection side, rAAV-luc injected mice [3, 5]: 3860±138 cells
- cells survived (cell number compared to untransduced controls) [4]: 85.1±4.1%
- relative CellEvent signal (activated caspase 3 and 7) (caspase 3 and 7): 25.6±2.1
- reduction of density of 37 kDa α-syn band compared to α-syn overexpressing cells treated with DMSO (α-syn; 20 μM vinpocetine): 52.2±6.6%
- α-syn monomer band compared to untransduced controls (α-syn; 20 μM vinpocetine, DMSO treated α-syn cells 3.4±0.1-fold): 5.1±0.4 fold
- change in other α-syn bands (α-syn; vinpocetine treatment, FIG. 3G,H): no change
- ibal-immunoreactivity, vinpocetine versus solvent treatment (microglial marker ibal): nor any differences between vinpocetine and solvent treatment
